Reference: ChEMBL document CHEMBL6127144, “Optimization of a Piperidine CD4-Mimetic Scaffold Sensitizing HIV-1 Infected Cells to Antibody-Dependent Cellular Cytotoxicity” (ACS Med Chem Lett, 2024)
Active and inactive are the calls of the source. The calls are words filed in the database; no cut-off is given here.

Experiments:
CD4+ T cell [1] = assay: Binding affinity to 17b Antibody in HIV-1 AD8 infected human primary CD4+ T cell by measuring median fluorescence intensity at 50 uM incubated for 48 hrs by Alexa Fluor 647 staining based flow cytometric analysis
CD4+ T cell [2] = assay: Binding affinity to 17b Antibody in HIV-1 JRFL infected human primary CD4+ T cell by measuring median fluorescence intensity at 50 uM incubated for 48 hrs by Alexa Fluor 647 staining based flow cytometric analysis
[3] = system: Moloney murine leukemia virus; assay: Antiviral activity against Moloney murine leukemia virus infected in human TZM-bl cells assessed as inhibition of viral growth incubated for 48 hrs by luminometer based neutralization assay; type: functional, organism-based
[4] = system: Human immunodeficiency virus 1; assay: Antiviral activity against HIV-1 CH58TF infected in human TZM-bl cells assessed as inhibition of viral growth incubated for 48 hrs by luminometer based neutralization assay; type: functional, organism-based; settings: Human immunodeficiency virus 1, CH58TF
[5] = system: Human immunodeficiency virus 1; assay: Antiviral activity against HIV-1 JRFL infected in human TZM-bl cells assessed as inhibition of viral growth incubated for 48 hrs by luminometer based neutralization assay; type: functional, organism-based; settings: Human immunodeficiency virus 1, JRFL
[6] = system: Human immunodeficiency virus 1; assay: Antiviral activity against HIV-1 AD8 infected in human TZM-bl cells assessed as inhibition of viral growth incubated for 48 hrs by luminometer based neutralization assay; type: functional, organism-based; settings: Human immunodeficiency virus 1, AD8, TZM-bl
[7] = system: Human immunodeficiency virus 1; assay: Antiviral activity against HIV-1 CH58TF infected in human primary CD4+ T cell co-cultured with KHYG-1 cells assessed as inhibition of viral growth at 50 uM incubated for 4 to 6 hrs in presence of HIV+ plasma by flow cytometric analysis; type: functional, organism-based; settings: time 4-6 hrs
CD4+ T cell [8] = assay: Binding affinity to 17b Antibody in HIV-1 CH58TF infected human primary CD4+ T cell co-cultured with KHYG-1 cells assessed as antibody driven cell cytotoxicity at 50 uM incubated for 4 to 6 hrs by Alexa Fluor 647 staining based flow cytometric analysis; settings: time 4-6 hrs
CD4+ T cell [9] = assay: Binding affinity to 17b Antibody in HIV-1 AD8 infected human primary CD4+ T cell co-cultured with KHYG-1 cells assessed as antibody driven cell cytotoxicity at 50 uM incubated for 4 to 6 hrs by Alexa Fluor 647 staining based flow cytometric analysis; settings: time 4-6 hrs
[10] = system: Human immunodeficiency virus 1; assay: Antiviral activity against HIV-1 AD8 infected in human primary CD4+ T cell co-cultured with KHYG-1 cells assessed as inhibition of viral growth at 50 uM incubated for 4 to 6 hrs in presence of HIV+ plasma by flow cytometric analysis; type: functional, organism-based; settings: time 4-6 hrs
TZM = assay: Cytotoxicity against human TZM-bl cells upto 100 uM incubated for 48 hrs by cell-titer glo luminescent assay; type: toxicity, cell-based
CD4+ T cell [11] = assay: Binding affinity to 17b Antibody in HIV-1 AD8 infected human primary CD4+ T cell at 50 uM incubated for 48 hrs by Alexa Fluor 647 staining based flow cytometric analysis
CD4+ T cell [12] = assay: Binding affinity to 17b Antibody in HIV-1 JRFL infected human primary CD4+ T cell at 50 uM incubated for 48 hrs by Alexa Fluor 647 staining based flow cytometric analysis
CD4+ T cell [13] = assay: Binding affinity to 17b Antibody in HIV-1 JRFL infected human primary CD4+ T cell co-cultured with KHYG-1 cells assessed as antibody driven cell cytotoxicity at 50 uM incubated for 4 to 6 hrs by Alexa Fluor 647 staining based flow cytometric analysis; settings: time 4-6 hrs
[14] = system: Human immunodeficiency virus 1; assay: Antiviral activity against HIV-1 JRFL infected in human primary CD4+ T cell co-cultured with KHYG-1 cells assessed as inhibition of viral growth at 50 uM incubated for 4 to 6 hrs in presence of HIV+ plasma by flow cytometric analysis; type: functional, organism-based; settings: time 4-6 hrs

Compound	Flu intensity (CD4+ T cell [1])	Flu intensity (CD4+ T cell [2])	IC50 [5]	IC50 [6]	also measured
CN1CCN(C(=O)N2CCC[C@H](C(=O)Nc3ccc(Cl)c(F)c3)C2)CC1	1.5	1.14	–	–	–
NCCNC(=O)N1CCC[C@H](C(=O)Nc2ccc(Cl)c(F)c2)C1	–	–	> 100 µM	> 100 µM	IC50 [3]: > 100 µM; IC50 [4]: 1.77 µM; Activity [7]: Active; Activity (CD4+ T cell [8]): Active; Activity (CD4+ T cell [9]): inactive; Activity [10]: inactive
O=C(Nc1ccc(Cl)c(F)c1)[C@H]1CCCN(C(=O)N(CCO)CCO)C1	1.27	1.04	–	–	–
N=C(N)NCCC[C@H](N)C(=O)N1CCN(C(=O)N2CCC[C@H](C(=O)Nc3ccc(Cl)c(F)c3)C2)CC1	2.23	1.61	≥ 72.6 µM	1.27 µM	IC50 [3]: > 100 µM; IC50 [4]: 0.22 µM; Activity (TZM): Non-Toxic; Activity [7]: Active; Activity (CD4+ T cell [8]): Active; Activity (CD4+ T cell [9]): Active
O=C(Nc1ccc(Cl)c(F)c1)[C@H]1CCCN(C(=O)N2CCN(c3cccc(C(F)(F)F)c3)CC2)C1	–	–	–	–	Activity (CD4+ T cell [11]): inactive; Activity (CD4+ T cell [12]): inactive
CNCc1ccc2c(c1)C[C@H](CNC(=N)N)[C@H]2NC(=O)C(=O)Nc1ccc(Cl)c(F)c1	–	–	4.6 µM	0.95 µM	IC50 [3]: > 100 µM; IC50 [4]: 0.07 µM; Activity [7]: Active; Activity (CD4+ T cell [8]): Active
O=C(Nc1ccc(Cl)c(F)c1)[C@H]1CCCN(C(=O)N2CCC[C@H]2CO)C1	1.26	1.11	–	–	–
CC(=O)NCSC[C@H](N)C(=O)N1CCN(C(=O)N2CCC[C@H](C(=O)Nc3ccc(Cl)c(F)c3)C2)CC1	1.75	1.55	40 µM	1.86 µM	Activity (CD4+ T cell [9]): Active
O=C(Nc1ccc(Cl)c(F)c1)[C@H]1CCCN(C(=O)c2ccncc2)C1	1.25	0.95	–	–	–
NC(=O)C[C@H](N)C(=O)N1CCN(C(=O)N2CCC[C@H](C(=O)Nc3ccc(Cl)c(F)c3)C2)CC1	2.14	1.53	24.6 µM	6.21 µM	–
CN(C)CCCN1CCN(C(=O)N2CCC[C@H](C(=O)Nc3ccc(Cl)c(F)c3)C2)CC1	1.39	1.42	–	–	–
N[C@@H](Cc1ccc(O)cc1)C(=O)N1CCN(C(=O)N2CCC[C@H](C(=O)Nc3ccc(Cl)c(F)c3)C2)CC1	2.48	2.19	28 µM	2.18 µM	–
O=C(Nc1ccc(Cl)c(F)c1)[C@H]1CCCN(C(=O)N2CCOCC2)C1	1.49	1.05	–	–	–
O=C(Nc1ccc(Cl)c(F)c1)[C@H]1CCCN(C(=O)c2c[nH]cn2)C1	1.07	0.93	–	–	–
N=C(N)N1CCC[C@@H]1C(=O)N1CCN(C(=O)N2C[C@H](CO)C[C@H](C(=O)Nc3ccc(Cl)c(F)c3)C2)CC1	–	–	–	> 100 µM	–
COCCN1CCN(C(=O)N2CCC[C@H](C(=O)Nc3ccc(Cl)c(F)c3)C2)CC1	1.28	1.43	–	–	–
CCN1CCN(C(=O)N2CCC[C@H](C(=O)Nc3ccc(Cl)c(F)c3)C2)CC1	1.23	1.36	–	–	–
O=C(Nc1ccc(Cl)c(F)c1)[C@H]1CCCN(C(=O)N2CCCCC2)C1	1.19	0.96	–	–	–
O=C(Nc1ccc(Cl)c(F)c1)[C@H]1CCCN(C(=O)N2CCN(c3ccccc3)CC2)C1	–	–	–	–	Activity (CD4+ T cell [11]): inactive; Activity (CD4+ T cell [12]): inactive
O=C(Nc1ccc(Cl)c(F)c1)[C@H]1CCCN(C(=O)N2CCN(c3ccccn3)CC2)C1	–	–	–	–	Activity (CD4+ T cell [11]): inactive; Activity (CD4+ T cell [12]): inactive
O=C(Nc1ccc(Cl)c(F)c1)[C@H]1CCCN(C(=O)N2CCN(c3ncccn3)CC2)C1	–	–	–	–	Activity (CD4+ T cell [11]): inactive; Activity (CD4+ T cell [12]): inactive
O=C(Nc1ccc(Cl)c(F)c1)[C@H]1CCCN(C(=O)N2CCN(CC(=O)N3CCCC3)CC2)C1	1.52	1.3	–	–	–
N=C(N)N1CCC[C@@H]1C(=O)N1CCN(C(=O)N2CCC[C@H](C(=O)Nc3ccc(Cl)c(F)c3)C2)CC1	–	–	8.28 µM	2.92 µM	IC50 [3]: > 100 µM; IC50 [4]: 0.14 µM; Activity (TZM): Non-Toxic; Activity [7]: Active; Activity (CD4+ T cell [8]): Active; Activity (CD4+ T cell [13]): Active; Activity [14]: inactive; Activity (CD4+ T cell [9]): Active; Activity [10]: Active
N=C(N)NCC(=O)N1CCN(C(=O)N2CCC[C@H](C(=O)Nc3ccc(Cl)c(F)c3)C2)CC1	–	–	10.7 µM	1.99 µM	IC50 [3]: > 100 µM; IC50 [4]: 0.15 µM; Activity (TZM): Non-Toxic; Activity [7]: Active; Activity (CD4+ T cell [8]): Active; Activity (CD4+ T cell [13]): Active; Activity [14]: inactive; Activity (CD4+ T cell [9]): Active
C[C@H](N)C(=O)N1CCN(C(=O)N2CCC[C@H](C(=O)Nc3ccc(Cl)c(F)c3)C2)CC1	2.53	2.02	5.62 µM	1.83 µM	–
N=C(N)NCC(=O)N1CCN(C(=O)N2C[C@H](CO)C[C@H](C(=O)Nc3ccc(Cl)c(F)c3)C2)CC1	–	–	–	38.6 µM	–
NC(=O)[C@@H]1CCCN1C(=O)N1CCC[C@H](C(=O)Nc2ccc(Cl)c(F)c2)C1	1.23	1.01	–	–	–
C[C@@H](O)[C@H](N)C(=O)N1CCN(C(=O)N2CCC[C@H](C(=O)Nc3ccc(Cl)c(F)c3)C2)CC1	inactive	inactive	13.7 µM	1.55 µM	–
